Measurements from patent US8598118B2, “Hepatocyte growth factor mimics as therapeutic agents” (Washington State University, priority 2011, dated 2013).
“And” between values parts separate entries of the source, which are not always exact repeats. Equal entries are not always repeated.

Tests used:
hippocampal neurons [1] = test: Immunocytochemistry: percent correlation of spines to synaptic markers (VGLUT1, Synapsin, PSD-95); type: cell-based, rat; conditions: HGF 10 ng/ml, 5 days
Protocol: Transfected neurons were treated, fixed and stained. Briefly, cells were permeablized with 0.1% Triton X-100 detergent (Bio-Rad; Hercules, Calif.) for 10 minutes. An 8% bovine serum albumin (Intergen Company; Burlington, Mass.) in PBS was used to prevent non-specific binding for one hour at R.T.; Primary antibody incubations were at a 1:2500 dilution (see below) in 1% BSA in PBS at 4° C. overnight. Secondary antibody, 1:3000 Alexafluor 488 goat-anti-mouse (Invitrogen: Carlsbad, Calif.) was applied for two hours at room temperature. Coverslips were mounted with ProLong Gold anti-fade reagent (Invitrogen; Carlsbad, Calif.) and all washes were done with PBS. Imaging and analysis were performed as described above. […] In each instance the total number of spines was counted for the treatment groups, control, Nle1-AngIV and Dihexa, to ensure an active phenotype. The total number of actin enriched spines adjacent to VGLUT1 or Synapsin were counted and converted to a percentage as the percent correlation of treatment-induced spines to presynaptic markers is a strong indicator of ability to transmit excitatory signals.
Transfected neurons were treated, fixed and stained as previously described in Chapter two. […] In each instance the total number of spines was counted for the treatment groups, control, Nle1-AngIV and Dihexa, to ensure an active phenotype. […]

c-Met receptor = biological target: T1, c-Met receptor (Rattus norvegicus, UniProt P97523); test: Effect of c-Met knock-down (shMet) on spinogenesis in hippocampal neurons; type: cell-based; conditions: HGF 10 ng/ml, 48 hours
T1 construct: Dissociated hippocampal neurons were transfected with mRFP-β-actin and shMet RNA; endogenous in cells; host or cells: dissociated hippocampal neurons from P1-2 Sprague Dawley rats
T1 sequence (P17945 33-495 partner limits assumed): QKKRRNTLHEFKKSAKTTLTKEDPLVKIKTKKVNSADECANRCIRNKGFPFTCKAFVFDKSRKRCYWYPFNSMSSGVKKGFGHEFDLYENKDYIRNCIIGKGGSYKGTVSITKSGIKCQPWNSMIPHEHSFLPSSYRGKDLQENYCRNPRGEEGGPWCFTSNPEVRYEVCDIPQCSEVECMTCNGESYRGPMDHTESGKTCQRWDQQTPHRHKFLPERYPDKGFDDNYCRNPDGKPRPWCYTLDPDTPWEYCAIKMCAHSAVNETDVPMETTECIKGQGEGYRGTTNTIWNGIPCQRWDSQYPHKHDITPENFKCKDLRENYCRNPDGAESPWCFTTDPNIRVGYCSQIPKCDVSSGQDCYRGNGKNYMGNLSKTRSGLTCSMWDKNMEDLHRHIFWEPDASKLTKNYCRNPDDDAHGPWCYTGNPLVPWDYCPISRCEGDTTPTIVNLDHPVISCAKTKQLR
T1 sequence (P17945 496-728 partner limits assumed): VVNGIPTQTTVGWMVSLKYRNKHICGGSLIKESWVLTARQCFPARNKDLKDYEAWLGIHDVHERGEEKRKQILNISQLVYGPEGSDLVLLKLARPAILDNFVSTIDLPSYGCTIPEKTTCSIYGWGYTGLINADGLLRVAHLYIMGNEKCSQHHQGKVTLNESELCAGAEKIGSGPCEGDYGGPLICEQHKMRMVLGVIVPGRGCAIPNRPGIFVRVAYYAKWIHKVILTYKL
T1 sequence (P97523 25-1382): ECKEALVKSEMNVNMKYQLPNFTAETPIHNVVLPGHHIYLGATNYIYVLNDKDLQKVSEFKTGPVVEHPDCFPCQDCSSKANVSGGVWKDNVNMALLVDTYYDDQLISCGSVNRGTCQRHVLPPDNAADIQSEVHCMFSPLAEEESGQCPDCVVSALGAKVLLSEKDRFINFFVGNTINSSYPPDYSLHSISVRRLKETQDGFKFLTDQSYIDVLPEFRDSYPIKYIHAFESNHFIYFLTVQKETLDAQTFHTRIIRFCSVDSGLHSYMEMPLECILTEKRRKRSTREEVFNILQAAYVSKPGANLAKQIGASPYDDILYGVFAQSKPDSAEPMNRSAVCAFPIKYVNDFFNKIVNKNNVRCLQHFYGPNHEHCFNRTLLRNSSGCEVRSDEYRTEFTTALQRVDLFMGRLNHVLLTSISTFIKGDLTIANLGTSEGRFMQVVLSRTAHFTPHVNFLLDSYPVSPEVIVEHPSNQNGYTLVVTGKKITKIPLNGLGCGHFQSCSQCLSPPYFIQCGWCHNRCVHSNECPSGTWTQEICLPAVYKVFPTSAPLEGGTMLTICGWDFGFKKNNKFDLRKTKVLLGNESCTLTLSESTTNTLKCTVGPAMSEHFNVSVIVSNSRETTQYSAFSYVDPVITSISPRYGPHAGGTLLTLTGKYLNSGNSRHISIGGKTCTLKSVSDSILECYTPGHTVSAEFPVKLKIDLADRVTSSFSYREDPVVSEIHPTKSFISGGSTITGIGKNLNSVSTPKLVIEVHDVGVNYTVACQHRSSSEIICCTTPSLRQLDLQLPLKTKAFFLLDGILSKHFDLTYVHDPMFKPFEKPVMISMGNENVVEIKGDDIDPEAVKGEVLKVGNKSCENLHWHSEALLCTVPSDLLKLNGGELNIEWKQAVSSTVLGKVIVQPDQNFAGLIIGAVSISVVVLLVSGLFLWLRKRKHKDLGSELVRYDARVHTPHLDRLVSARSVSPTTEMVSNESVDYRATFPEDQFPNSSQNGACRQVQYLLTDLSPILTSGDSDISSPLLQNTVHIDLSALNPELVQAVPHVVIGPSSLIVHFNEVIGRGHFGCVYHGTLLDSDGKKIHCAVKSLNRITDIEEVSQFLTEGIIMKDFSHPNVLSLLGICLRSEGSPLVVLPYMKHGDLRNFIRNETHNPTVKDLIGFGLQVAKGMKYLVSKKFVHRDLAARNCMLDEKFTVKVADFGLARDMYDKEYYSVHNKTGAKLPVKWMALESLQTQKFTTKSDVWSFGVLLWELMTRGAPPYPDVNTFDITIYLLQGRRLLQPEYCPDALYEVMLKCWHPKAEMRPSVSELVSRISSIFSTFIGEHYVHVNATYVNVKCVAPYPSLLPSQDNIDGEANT
Description: Neurons were transfected with mRFP-β-actin on day in vitro 6 (DIV6) using LipofectAMINE™ 2000 (Invitrogen) according to the manufacturer's protocol. This protocol yielded the desired 3-5% transfection efficiency thus enabling the visualization of individual neurons. Higher efficiencies obscured the dendritic arbor of individual neurons. Expression of fluorescently tagged actin allowed clear visualization of dendritic spines, as dendritic spines are enriched in actin. On DIV7 the cells were treated with vehicle (H20) or peptides (as described in the text) added to media. On DIV 12 the neurons were fixed (4% paraformaldehyde, 3% sucrose, 60 mM PIPES, 25 mM HEPES, 5 mM EGTA, 1 mM MgCl2, pH 7.4) for 20 min at room temperature and mounted. Slides were dried for at least 20 hours at 4° C. and fluorescent images were obtained with Slidebook 4.2 Digital Microscopy Software driving an Olympus IX81 inverted confocal microscope with a 60× oil immersion lens, NA 1.4 and resolution 0.280 μm Dendritic spine density was measured on primary and secondary dendrites at a distance of at least 150 μm from the soma. Five 50 μm long segments of dendrite from at least 10 neurons per data point were analyzed for each data point reported. Each experiment was repeated at least three times using independent culture preparations. Dendrite length was determined using the National Institutes of Health's Image J 1.41o program (NIH, Bethesda, Md.) and the neurite tracing program Neuron J (Meijering, Jacob et al. 2004) Spines were manually counted.
A target sequence for c-Met was designed using RNAi central design program (see the website located at cancan.cshl.edu/). […]. The shRNA was transfected into cells using the lipofectamine method described above. Verification of receptor knockdown was done by creating a c-Met-6-Myc tagged gene product using the Gateway cloning system (Invitrogen). […]

hippocampal neurons [2] = test: Whole-cell recordings of AMPA-mediated mEPSCs; type: cell-based, rat; conditions: HGF 10 ng/ml, 5 days (Example 2)

mean spine numbers per 50 μm dendrite length (c-Met receptor; neurons transfected with mRFP-β-actin alone): 20.6
mean spine numbers per 50 μm dendrite length (c-Met receptor; neurons transfected with mRFP-β-actin and shMet): 12.4
Substance: HGF: carrier free adult recombinant Hepatocyte Growth Factor (R and D Systems)
percent correlation of spines to Synapsin (hippocampal neurons [1]): 98%
mean frequency of mEPSCs (hippocampal neurons [2]): 7.09±0.53 and 9.66±0.20
